Data set [1] deals with T1, MetAP2 (Homo sapiens, UniProt P50579). The data set can be described thus: MetAP2 enzyme assay. The settings on record: for inhibition at 0.05 µM: 50 nM; for inhibition at 0.2 µM: 200 nM. It counts as biochemical. As for the experimental part: Compound A was tested in a MetAP2 enzyme assay. Table 1 indicates the inhibition results for various concentrations: […]
Data set [2] addresses T1, MetAP2. Description: cell based assay, inhibition of MetAP2. On the procedure: In a cell based assay, the inhibition of MetAP2 was <10 nM.
Data set [3] is described as follows: weight loss study in obese mice (high-fat diet induced), Example 2. The conditions noted are these: 1.0 mg/kg in 10% gelucire in deionised water, once a day for 7 days, 60% fat diet. It counts as in vivo, C57BL/6NTac mice. On the procedure:
A weight loss study was conducted in obese mice. The mice in this study were not genetically obese, but prior to and during the study, obesity was induced by a high-fat diet. Twelve week-old C57BL/6NTac mice, maintained on a 60% fat diet prior to and during the study, were separated into seven groups, eight animals per group. Average body weight of the mice was approximately 47 g at the start of the study.
Mice were administered 1.0 mg/kg of compound A in 10% gelucire in deionised water. Mice received administrations once a day for 7 days. The one week weight loss was 11.9%.

A short description of data set [4]: Study A: 7 day screen, weight loss in mice on 45% kcal fat diet. In kind it is in vivo, C57BL/6 mice. As for the experimental part:
Three studies were conducted using 18-20 week old C57BL/6 mice. Study A was a 7 day screen that included 18-20 week old C57BL/6 mice that were provided a 45% kcal fat diet for 14 weeks, and treated with either 10% Gelucire in water or the same vehicle containing an amount of compound A to deliver a dose of 1 mg/kg dosed daily for 7 days.

A short description of data set [5]: Study B: 10 day study, weight loss in mice on 60% kcal fat diet. The conditions noted are these: PO 3 mg/kg, 10% DMSO. In kind it is in vivo, C57BL/6 mice. As for the experimental part:
Study B was a 10 day study that included 20 week old C57BL/6 mice on 60% kcal fat diet for 14 weeks treated with either 10% DMSO or the same vehicle containing an amount of drug to deliver a dose of 3 mg/kg of compound A for 10 days. FIG. 2 depicts the 7-day PO efficacy at 3 mg/kg of compound A.

Data set [6] is described as follows: Example 4: body weight loss compared to vehicle, 3 mg/kg for 10 days. In kind it is in vivo, C57BL/6 mice. The settings on record: compared with compound (i) and compound (ii). On the procedure:
20 week old C57BL/6 mice on 60% kcal fat diet for 14 weeks treated with either 10% DMSO or the same vehicle containing an amount of drug to deliver a dose of 3 mg/kg of compound (ii) (as identified above), compound (i) [fumigillol], and compound A for 10 days. FIG. 3 indicates the body weight loss compared to vehicle for each compound.

Data set [7] has as its system MetAP2. The data set can be described thus: Example 4: testes biomarker, N-terminal peptide of mouse thioredoxin (SEQ ID NO. 1) by LC-MS/MS. In kind it is in vivo. The settings on record: 3 mg/kg for 10 days, testes harvested at end of study. An excerpt: At the end of the study testes from the mice were harvested, homogenized and digested with endoproteinase Glu-C.

Data set [8] in a line: Study C: 10 day study, weight loss in mice on 60% kcal fat diet. In kind it is in vivo, C57BL/6 mice. The settings on record: 10% DMSO. As for the experimental part:
Study C was a 10 day study that included 20 week old C57BL/6 mice on 60% kcal fat diet for 14 weeks treated with either 10% DMSO or the same vehicle containing an amount of drug to deliver an oral dose of 1 mg/kg or 3 mg/kg of the compound 6-O-(4-dimethylaminoethoxy)cinnamoyl fumagillol (dimethyl analogue) for 10 days.

Marks after values point to notes of the source that are not given here.

T1 sequence (P50579 whole entry, species assumed): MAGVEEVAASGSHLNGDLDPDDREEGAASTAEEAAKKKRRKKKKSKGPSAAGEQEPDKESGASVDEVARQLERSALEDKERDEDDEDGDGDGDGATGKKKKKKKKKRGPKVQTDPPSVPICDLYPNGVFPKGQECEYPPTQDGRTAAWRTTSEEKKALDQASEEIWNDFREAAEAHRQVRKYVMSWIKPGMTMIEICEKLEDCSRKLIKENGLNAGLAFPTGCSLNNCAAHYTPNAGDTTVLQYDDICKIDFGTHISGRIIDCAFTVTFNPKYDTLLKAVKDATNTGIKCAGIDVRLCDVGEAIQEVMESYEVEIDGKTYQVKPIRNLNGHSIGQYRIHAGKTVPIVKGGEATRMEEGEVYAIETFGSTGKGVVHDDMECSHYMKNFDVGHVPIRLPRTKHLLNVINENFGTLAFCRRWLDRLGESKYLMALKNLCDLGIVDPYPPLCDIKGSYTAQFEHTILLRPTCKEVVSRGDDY

In the case of `CCN(CC)CCOc1ccc(/C=C/C(=O)O[C@@H]2CC[C@]3(CO3)[C@@H]([C@@]3(C)O[C@@H]3CC=C(C)C)[C@@H]2OC)cc1` [Compound A], the inhibition at 0.05 µM in data set [1] (1 hr) was found to be 42%; in data set [1] (2 hr) it was 45%; in data set [1] (4 hr), 71%. In addition, the inhibition at 0.2 µM in data set [1] (1 hr), in data set [1] (2 hr) and in data set [1] (4 hr) was 100% each time. The molecule further displayed an IC50 in data set [2] of less than 10 nM. Moreover, the “one week weight loss” value in data set [3] was 11.9%. For the same molecule, the “weight loss at day 7” value in data set [4] (PO 1 mg/kg daily, Study A, 10% Gelucire in water, 45% kcal fat diet) is recorded as 12%^a; in data set [5], 13%^b. In addition, the “potency dosed orally as compared to 6-O-(4-dimethylaminoethoxy)cinnamoyl fumagillol” value in data set [4] (day 7 weight loss, studies A, B, C compared) is listed as not below 3 times. The “weight loss potency (FIG. 3)” value in data set [6] is “comparable weight loss potency”. Also, the “availability to the testes tissue (concentration of SEQ ID NO. 1, FIG. 4)” value in data set [7] is “not as available to the testes tissue as compared to the other tested compounds”.

For `CO[C@@H]1[C@H](OC(=O)C=Cc2ccc(OCCN(C)C)cc2)CC[C@]2(CO2)[C@H]1[C@@]1(C)O[C@@H]1CC=C(C)C` [dimethyl analogue, 6-O-(4-dimethylaminoethoxy)cinnamoyl fumagillol], the “weight loss at day 7” value in data set [8] (PO 1 mg/kg) was 1.1%^c; in data set [8] (PO 3 mg/kg), 11%^c.

A word on the inhibition: it is how much of the control response was suppressed. Read a low inhibition as a response near the control. One may read the IC50 as the concentration at which inhibition is half-maximal. Lower therefore signals greater potency in that assay.

Source of the values: patent publication US9067913B2, “Fumigillol type compounds and methods of making and using same” (Zafgen, Inc., priority 2010, dated 2015).
